We go through ten molecules from patent US12492188B2, “1H-benzo[D]imidazole derivatives as TLR9 inhibitors for the treatment of fibrosis” (BRISTOL-MYERS SQUIBB COMPANY, priority 2020, dated 2025).

Type in all cases: cell-based
One assay addresses T1, human TLR8 (Homo sapiens, UniProt Q9NR97).
T1 construct: host or cells: HEK-Blue cells (HEK293-derived reporter line)
T1 sequence (Q9NR97 27-1041): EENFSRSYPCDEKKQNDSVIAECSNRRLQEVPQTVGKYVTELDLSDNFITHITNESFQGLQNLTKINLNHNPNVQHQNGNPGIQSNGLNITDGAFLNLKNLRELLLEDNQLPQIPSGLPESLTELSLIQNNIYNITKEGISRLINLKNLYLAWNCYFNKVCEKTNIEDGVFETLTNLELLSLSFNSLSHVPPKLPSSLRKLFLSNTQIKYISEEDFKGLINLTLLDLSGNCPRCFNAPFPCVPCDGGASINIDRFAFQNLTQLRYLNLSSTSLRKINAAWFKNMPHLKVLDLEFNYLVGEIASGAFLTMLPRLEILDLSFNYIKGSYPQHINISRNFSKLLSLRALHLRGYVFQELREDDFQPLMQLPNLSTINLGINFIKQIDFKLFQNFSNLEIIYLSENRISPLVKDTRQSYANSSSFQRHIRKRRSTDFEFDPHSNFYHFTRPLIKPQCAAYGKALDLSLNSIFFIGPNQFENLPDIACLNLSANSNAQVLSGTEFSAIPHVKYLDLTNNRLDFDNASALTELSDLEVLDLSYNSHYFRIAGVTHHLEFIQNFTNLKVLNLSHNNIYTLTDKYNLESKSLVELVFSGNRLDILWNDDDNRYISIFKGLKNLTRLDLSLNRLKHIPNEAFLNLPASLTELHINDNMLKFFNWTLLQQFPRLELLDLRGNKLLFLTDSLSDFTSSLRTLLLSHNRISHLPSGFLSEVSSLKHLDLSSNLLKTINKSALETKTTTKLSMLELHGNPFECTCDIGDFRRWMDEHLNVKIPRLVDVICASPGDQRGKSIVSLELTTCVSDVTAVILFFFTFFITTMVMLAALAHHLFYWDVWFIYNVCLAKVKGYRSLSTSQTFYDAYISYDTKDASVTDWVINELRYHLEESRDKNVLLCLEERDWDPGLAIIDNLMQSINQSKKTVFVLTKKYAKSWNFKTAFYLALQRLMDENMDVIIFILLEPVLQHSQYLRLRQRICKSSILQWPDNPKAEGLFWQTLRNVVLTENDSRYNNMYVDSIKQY
As to the kind of experiment: TLR8 inhibition reporter assay (HEK-Blue cells, secreted embryonic alkaline phosphatase reporter). The note with it: HEK-Blue cells overexpressing human TLR8, stimulated with R848 15.9 μM; read-out: TLR 8 IC50. The method, boiled down: (§1)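 Steps: seed receptor-specific HEK-Blue cells; add compound, 0.05 nM–50 μM; wait 30 min at room temperature; add final gardiquimod 7.5 μM, R848 15.9 μM or ODN2006 5 nM for TLR7, TLR8 or TLR9; incubate 22 h at 37 °C; detect NF-κB/AP-1-driven SEAP.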
A general note: Reporter assays use an easily measured gene product as a stand-in for the process of interest.

Another assay addresses T2, human TLR7 (Homo sapiens, UniProt Q9NYK1).
T2 construct: host or cells: HEK-Blue cells (HEK293-derived reporter line)
T2 sequence (Q9NYK1 27-1049): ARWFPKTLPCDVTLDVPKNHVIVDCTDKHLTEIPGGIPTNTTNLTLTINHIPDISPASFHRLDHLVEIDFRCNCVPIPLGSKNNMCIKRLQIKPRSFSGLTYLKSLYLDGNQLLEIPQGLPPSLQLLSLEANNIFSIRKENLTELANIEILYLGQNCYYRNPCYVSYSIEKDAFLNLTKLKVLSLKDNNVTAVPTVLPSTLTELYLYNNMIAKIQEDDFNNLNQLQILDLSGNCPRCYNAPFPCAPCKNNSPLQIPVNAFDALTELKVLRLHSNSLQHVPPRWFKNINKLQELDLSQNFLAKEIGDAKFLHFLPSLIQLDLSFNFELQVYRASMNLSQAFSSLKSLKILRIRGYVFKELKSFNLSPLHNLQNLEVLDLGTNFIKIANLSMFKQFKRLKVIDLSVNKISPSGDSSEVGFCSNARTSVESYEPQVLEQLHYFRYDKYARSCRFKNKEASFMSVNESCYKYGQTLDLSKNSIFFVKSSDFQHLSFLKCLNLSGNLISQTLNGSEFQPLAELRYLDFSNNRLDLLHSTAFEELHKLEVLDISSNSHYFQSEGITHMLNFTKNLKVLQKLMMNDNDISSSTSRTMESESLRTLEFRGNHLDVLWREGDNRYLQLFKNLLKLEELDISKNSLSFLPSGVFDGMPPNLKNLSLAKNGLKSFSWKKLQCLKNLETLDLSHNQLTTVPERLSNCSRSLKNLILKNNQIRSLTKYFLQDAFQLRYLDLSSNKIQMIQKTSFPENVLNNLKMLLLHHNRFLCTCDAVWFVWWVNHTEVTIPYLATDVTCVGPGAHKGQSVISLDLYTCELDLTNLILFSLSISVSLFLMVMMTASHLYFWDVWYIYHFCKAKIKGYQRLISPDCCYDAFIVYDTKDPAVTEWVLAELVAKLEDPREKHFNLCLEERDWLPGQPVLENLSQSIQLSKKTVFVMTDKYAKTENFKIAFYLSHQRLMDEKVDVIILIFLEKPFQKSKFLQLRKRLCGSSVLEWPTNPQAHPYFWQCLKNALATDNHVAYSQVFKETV
The assay can be described thus: TLR7 inhibition reporter assay (HEK-Blue cells, secreted embryonic alkaline phosphatase reporter). The note with it: HEK-Blue cells overexpressing human TLR7, stimulated with gardiquimod 7.5 μM; read-out: TLR 7 IC50. The method, boiled down:
as §1

In a further assay the target is T3, human TLR9 (Homo sapiens, UniProt Q9NR96).
T3 construct: host or cells: HEK-Blue cells (HEK293-derived reporter line)
T3 sequence (Q9NR96 26-1032): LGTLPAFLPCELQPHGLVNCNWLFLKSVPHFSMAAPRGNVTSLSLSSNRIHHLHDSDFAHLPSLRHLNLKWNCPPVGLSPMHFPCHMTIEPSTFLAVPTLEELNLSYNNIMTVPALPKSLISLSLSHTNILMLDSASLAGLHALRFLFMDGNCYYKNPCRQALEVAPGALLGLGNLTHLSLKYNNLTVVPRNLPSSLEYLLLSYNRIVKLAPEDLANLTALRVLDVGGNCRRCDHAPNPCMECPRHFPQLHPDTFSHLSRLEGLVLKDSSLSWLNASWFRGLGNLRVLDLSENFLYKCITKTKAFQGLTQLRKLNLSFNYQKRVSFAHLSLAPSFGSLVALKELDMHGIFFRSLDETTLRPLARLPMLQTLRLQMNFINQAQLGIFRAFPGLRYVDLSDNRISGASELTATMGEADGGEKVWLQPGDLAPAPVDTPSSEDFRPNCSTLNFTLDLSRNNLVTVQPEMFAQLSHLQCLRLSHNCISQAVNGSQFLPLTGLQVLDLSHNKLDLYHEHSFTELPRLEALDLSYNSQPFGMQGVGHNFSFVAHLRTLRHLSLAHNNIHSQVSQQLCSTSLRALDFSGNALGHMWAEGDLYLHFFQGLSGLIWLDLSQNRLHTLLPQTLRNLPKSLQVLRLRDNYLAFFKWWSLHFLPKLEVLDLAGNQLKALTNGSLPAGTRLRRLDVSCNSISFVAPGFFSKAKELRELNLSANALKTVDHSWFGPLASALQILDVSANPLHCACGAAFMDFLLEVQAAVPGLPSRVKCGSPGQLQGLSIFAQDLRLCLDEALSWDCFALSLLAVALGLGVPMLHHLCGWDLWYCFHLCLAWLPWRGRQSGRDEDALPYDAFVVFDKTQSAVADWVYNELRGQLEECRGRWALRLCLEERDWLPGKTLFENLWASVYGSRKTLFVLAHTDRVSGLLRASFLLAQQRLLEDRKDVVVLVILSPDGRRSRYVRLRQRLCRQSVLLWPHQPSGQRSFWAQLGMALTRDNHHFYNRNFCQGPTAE
As to the kind of experiment: TLR9 inhibition reporter assay (HEK-Blue cells, secreted embryonic alkaline phosphatase reporter). The gist of the method: as §1

Setting [1] is: HEK-Blue cells overexpressing human TLR9, stimulated with ODN2006 5 nM, read-out: TLR 9 IC50.
Where [2] appears, read: HEK-Blue human TLR9 reporter cells.
Setting [3] is: HEK-Blue cells overexpressing human TLR9, stimulated with ODN2006 5 nM, 22 hour incubation, reporter readout.

Like-named read-outs stand apart in the source and are kept apart here.

On to `Cc1cc(C2CCN(C3CC4CCC(C3)N4C(C)C)CC2)cc2[nH]c(-c3ccc(S(C)(=O)=O)cc3)nc12` (stereo not drawn) [Example 333, 6-(1-(8-isopropyl-8-azabicyclo[3.2.1]octan-3-yl)piperidin-4-yl)-4-methyl-2-(4-(methylsulfonyl)phenyl)-1H-benzo[d]imidazole], for which the IC50 (usually the midpoint of a concentration-inhibition curve) at human TLR8 is over 50000 nM; on human TLR7, over 50000 nM; at human TLR9 (setting [1]), 329 nM; against human TLR9 (setting [2]) it was 330 nM.

For `Cn1c(-c2ccc(S(C)(=O)=O)cc2)nc2c(F)c(C3CCN(C4CCN(C5COC5)CC4)CC3)ccc21` [Example 186, 4-fluoro-1-methyl-2-(4-(methylsulfonyl)phenyl)-5-(1′-(oxetan-3-yl)-[1,4′-bipiperidin]-4-yl)-1H-benzo[d]imidazole], the IC50 at human TLR8 is over 50000 nM; at human TLR7, over 50000 nM; on human TLR9, 7300 nM; on human TLR9 (setting [1]), 7300 nM.

`CS(=O)(=O)c1ccc(-c2nc3ccc(C4CCN(C5CCN(C6CCC6)CC5)CC4)c(F)c3[nH]2)cc1` [Example 180, 6-(1′-cyclobutyl-[1,4′-bipiperidin]-4-yl)-7-fluoro-2-(4-(methylsulfonyl)phenyl)-1H-benzo[d]imidazole]: the IC50 was over 50000 nM on human TLR8, over 50000 nM at human TLR7 and 25 nM against human TLR9.

Turning to `COc1ccc(-c2nc3c(C)cc(C4CCN(C5CCN(CC(C)C)CC5)CC4)cc3n2C)cc1F` [Example 54, 2-(3-fluoro-4-methoxyphenyl)-6-(1′-isobutyl-[1,4′-bipiperidin]-4-yl)-1,4-dimethyl-1H-benzo[d]imidazole], the IC50 is over 50000 nM at human TLR8, 7700 nM at human TLR7, 130 nM at human TLR9 (setting [3]) and 131 nM at human TLR9 (setting [1]).

For `CCN1CCCN(Cc2ccc(-c3cc(C)c4nc(-c5ccc(S(C)(=O)=O)cc5)n(C)c4c3)cc2F)CC1` [Example 389, 6-(4-((4-ethyl-1,4-diazepan-1-yl)methyl)-3-fluorophenyl)-1,4-dimethyl-2-(4-(methylsulfonyl)phenyl)-1H-benzo[d]imidazole], the IC50 on human TLR8 was 1800 nM; at human TLR7, 300 nM; at human TLR9 (setting [3]), 330 nM; on human TLR9 (setting [1]) it was 327 nM.

Turning to `CC(C)CN1C2CCC1CC(N1CCC(c3cc4nc(-c5ccc(S(C)(=O)=O)cc5)n(C)c4cc3F)CC1)C2` (stereo not drawn) [Example 248, 6-fluoro-5-(1-(8-isobutyl-8-azabicyclo[3.2.1]octan-3-yl)piperidin-4-yl)-1-methyl-2-(4-(methylsulfonyl)phenyl)-1H-benzo[d]imidazole], the IC50 at human TLR8 was over 50000 nM; on human TLR7, over 50000 nM; on human TLR9, 78 nM; at human TLR9 (setting [1]), 78 nM.

`Cn1c(-c2ccc(S(C)(=O)=O)cc2)nc2ccc(C3CCN(C4CC5CCC(C4)N5C4CCOCC4)CC3)c(F)c21` (stereo not drawn) [Example 274, 7-fluoro-1-methyl-2-(4-(methylsulfonyl)phenyl)-6-(1-(8-(tetrahydro-2H-pyran-4-yl)-8-azabicyclo[3.2.1]octan-3-yl)piperidin-4-yl)-1H-benzo[d]imidazole]: the IC50 at human TLR8 was over 50000 nM; on human TLR7 it was 26100 nM; against human TLR9 it was 51 nM; at human TLR9 (setting [1]), 51 nM.

For `CC(C)CN1C2CCC1CC(N1CCC(c3cc(F)c4nc(-c5ccc(S(C)(=O)=O)cc5)n(C)c4c3)CC1)C2` (stereo not drawn) [Example 284, 4-fluoro-6-(1-(8-isobutyl-8-azabicyclo[3.2.1]octan-3-yl)piperidin-4-yl)-1-methyl-2-(4-(methylsulfonyl)phenyl)-1H-benzo[d]imidazole], the IC50 on human TLR8 was over 50000 nM; on human TLR7, 5300 nM; at human TLR9 (setting [1]), 118 nM; at human TLR9 (setting [2]), 120 nM.

Regarding `Cn1c(-c2ccc(S(C)(=O)=O)cc2)nc2c(F)cc(C3CCN(C4CC5CCC(C4)N5CC4CC4)CC3)cc21` (single isomer, unassigned) [Example 282, 6-(1-(8-(cyclopropylmethyl)-8-azabicyclo[3.2.1]octan-3-yl)piperidin-4-yl)-4-fluoro-1-methyl-2-(4-(methylsulfonyl)phenyl)-1H-benzo[d]imidazole], the IC50 at human TLR8 is over 50000 nM; at human TLR7, 7100 nM; on human TLR9 (setting [1]), 108 nM; against human TLR9 (setting [2]), 110 nM.

In the case of `CC(C)CN1CCC(N2CCC(c3cc(F)c4nc(-c5ccc(S(C)(=O)=O)cc5)n(C5CC5)c4c3)CC2)CC1` [Example 319, 1-cyclopropyl-4-fluoro-6-(1′-isobutyl-[1,4′-bipiperidin]-4-yl)-2-(4-(methylsulfonyl)phenyl)-1H-benzo[d]imidazole], the IC50 at human TLR8 was over 50000 nM; at human TLR7, 1400 nM; on human TLR9 (setting [1]), 94 nM; on human TLR9 (setting [2]), 94 nM.
